Read-outs that look alike come from different tables or passages of the source.
Key:
hELOVL6 = biological target: T1, hELOVL6 (Homo sapiens, UniProt Q9H5J4); conditions: read-out: hELOVL6 IC50; cited from earlier work
T1 sequence (Q9H5J4 1-265): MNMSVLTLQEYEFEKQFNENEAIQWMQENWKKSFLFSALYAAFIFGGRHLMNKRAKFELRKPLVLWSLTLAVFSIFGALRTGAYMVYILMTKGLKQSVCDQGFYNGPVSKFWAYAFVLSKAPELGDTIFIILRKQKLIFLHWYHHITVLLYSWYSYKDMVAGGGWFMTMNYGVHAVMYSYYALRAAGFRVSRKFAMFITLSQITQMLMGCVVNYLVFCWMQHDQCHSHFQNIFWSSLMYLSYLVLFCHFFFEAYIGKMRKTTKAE

hELOVL3 = biological target: T2, hELOVL3 (Homo sapiens, UniProt Q9HB03); conditions: cited from earlier work
T2 sequence (Q9HB03 1-270): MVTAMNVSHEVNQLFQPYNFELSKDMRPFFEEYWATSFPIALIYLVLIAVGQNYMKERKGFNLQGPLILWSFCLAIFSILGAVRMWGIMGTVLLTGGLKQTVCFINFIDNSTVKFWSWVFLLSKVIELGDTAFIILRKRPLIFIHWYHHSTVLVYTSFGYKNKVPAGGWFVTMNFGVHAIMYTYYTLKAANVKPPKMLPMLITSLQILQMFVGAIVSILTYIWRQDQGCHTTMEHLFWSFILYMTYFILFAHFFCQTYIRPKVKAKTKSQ

MDCK cells = assay: host cell toxicity in influenza A experiment; format: cell-based; conditions: 0.5 mM and 1 mM, 24 hours
influenza A = influenza A replication; format: cell-based
HCMV = HCMV replication / titer in infected fibroblasts; format: cell-based
adenovirus = adenovirus replication / titer; format: cell-based; conditions: for decrease of adenovirus titer: MRC2 cells
[1] = tested on: cholesterol ester (CE) synthesis; conditions: cited from earlier work
[2] = tested on: triacylglycerol (TG) synthesis; conditions: cited from earlier work
[3] = cited from earlier work
HCV [4] = assay: HCV replication in cell cultures, ACC inhibitor combined with HCV protease inhibitor (Example 1); format: cell-based
Description: HCV encoded proteolytic activity is required for infection and replication. The present example concerns the combined use of an ACC inhibitors (e.g., TOFA) and an HCV protease inihibitor (e.g., boceprevir) to antagonize viral replication. In each assay, various concentrations of TOFA are combined with various concentrations of boceprevir and cell cultures exposed to HCV are assayed for virus replication. In one series of tested combinations, a physiological concentration of boceprivir is held constant as the dose of TOFA is increased. Control cultures are treated with no drug, boceprivir alone or the various concentrations of TOFA alone. Samples are taken at 24, 48, 72 and 96 hours after initiation of drug treatment. The antiviral effect of boceprivir plus each concentration of TOFA is then compared to the activity of boceprivir alone or the various concentrations of TOFA alone. The relative toxicity of the different combinations is also assayed.

HCV [5] = assay: HCV replication; format: cell-based, hepatitis C virus
[6] = tested on: herpes simplex virus-1 (HSV-1); assay: HSV-1 replication; format: cell-based; conditions: nanomolar concentrations

SMILES: CCCCS(=O)(=O)N1C[C@H]2CC[C@@H]1[C@H](C(=O)Nc1ccc(OC)cc1)C2
- IC50 (hELOVL6): 1710 nM

SMILES: CC(C)Oc1ccc(NC(=O)[C@@H]2C[C@@H]3CC[C@H]2N(S(=O)(=O)c2cn(C)cn2)C3)cc1
- IC50 (hELOVL3): 1510 nM
- IC50 (hELOVL6): 220 nM

SMILES: CCCCS(=O)(=O)N1CCC[C@@H](C(=O)Nc2ccc(OC(C)C)cc2)C1
- IC50 (hELOVL6): 930 nM

SMILES: NOCC(=O)O [AOAA, aminooxyacetic acid]
- host cell toxicity (MDCK cells): no evidence of host cell toxicity
- decrease of influenza A replication (influenza A): at least 1000 fold
- inhibition of influenza A replication (influenza A): inhibited the replication
- inhibition of HCMV replication (HCMV): inhibited the replication
- decrease of HCMV replication (HCMV; 0.5 mM): 100 fold
- inhibition of adenovirus replication (adenovirus): inhibited the replication
- decrease of adenovirus titer (adenovirus; 0.5 mM): 20 fold
- decrease of adenovirus titer (adenovirus; 1 mM): 500 fold

SMILES: N=C(N)NCc1cccc([131I])c1 [MIBG, meta-iodobenzylguanidine]
- reduction of HCMV titer (HCMV; 50 μM, infected MRCS fibroblasts): about 70%

SMILES: CCC(C)[C@@H]1C(=O)/C(=C(/O)[C@@H]2[C@@H]3[C@H](C)C[C@H](C)C[C@@H]3C=C[C@@H]2[C@]2(C)O[C@H]2C)C(=O)N1C (stereo partly drawn) [PF-1052]
- inhibition of CE synthesis [1]: inhibits both CE and TG synthesis in a dose dependent manner
- inhibition of TG synthesis [2]: inhibits both CE and TG synthesis in a dose dependent manner
- inhibition of HCMV replication (HCMV; 10 μM): profoundly inhibits

SMILES: CCCCCCCCCCCCCCOc1ccc(C(=O)O)o1 [TOFA, 5-(tetradecyloxy)-2-furoic acid]
- adverse effects ([3]; rat, in vivo, 100 mg/kg/day): no adverse effects are observed
- teratogenicity ([3]; rat, in vivo, 150 mg/kg/day): not teratogenic
- oral LD50 ([3]; rats, oral): greater than 5,000 mg/kg
- magnitude of the therapeutic effect (HCV [4]; given TOFA concentration, boceprivir also present): increased
- concentration of TOFA required to produce a 10-fold reduction in HCV replication (HCV [4]; in the presence of a pharmacologically acceptable concentration of boceprivir): markedly reduced
- inhibition of HCMV replication (HCMV): inhibited the replication
- inhibition of HCV replication (HCV [5]): inhibited the replication

SMILES: O=C(Nc1ccc(C(F)(F)F)cc1)N1C2CCC1CC(S(=O)(=O)c1ccccn1)C2 (stereo not drawn) [endo-1w]
- IC50 (hELOVL3): 6940 nM
- IC50 (hELOVL6): 79 nM

SMILES: COC(=O)c1c2c(c3ccccc3c1O)OC(C)(C)C=C2 [rubimaillin]
- inhibition of CE synthesis [1]: selectively inhibits CE synthesis

SMILES: CCC/C=C/C/C=C/C=C/C=N/NN=O [triacsin C]
- inhibition of influenza A replication (influenza A; nanomolar concentrations): inhibit the replication
- inhibition of HCMV replication (HCMV; nanomolar concentrations): inhibit the replication
- inhibition of HSV-1 replication [6]: inhibit the replication
- inhibition of HCV replication (HCV [5]; nanomolar concentrations): inhibit the replication

— US20150139949A1, “ANTI-VIRAL COMBINATION THERAPY” (priority 2011, published 2015)
